The target in test [1] is T1, full-length NS3/NS4A-2 (HCV NS3 protease) (Hepatitis C virus genotype 1a, UniProt P27958).
T1 construct: Recombinant E. coli or Baculovirus full-length NS3 was diluted to 3.33 μM with assay buffer; made in house; host or cells: E. coli or baculovirus (BV) expression system
As to the kind of experiment: NS3-NS4 protease assay / NS3 inhibition assay (RETS1 substrate, fluorescence kinetic read). It is filed as biochemical. The settings on record: recombinant E. coli or Baculovirus full-length NS3 with NS4A-2; read-out: NS3-NS4 IC50. The procedure, abridged: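 Full-length NS3 from E. coli (2 nM in assay) or baculovirus (3 nM) was precomplexed with excess NS4A-2 peptide, then preincubated 10 min at room temperature with serially diluted compounds starting at 50 microM. Reaction was started with RETS1 substrate at 8 μM before addition and read kinetically for 30 min (ex 335/em 495 nm). Four-parameter IC50s were converted to Ki by Cheng-Prusoff using Km 2.03 μM (E. coli) or 1.74 μM (BV).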

Test [2] concerns HCV sub-genomic replicon in GS4.3 cells (HuH-7 hepatoma cells). As to the kind of experiment: Quantitation by ELISA of Neomycin phosphotransferase II (NPTII) in the HCV sub-genomic replicon, GS4.3. It is filed as cell-based, hepatitis C virus. The settings on record: Hepatitis C virus, Huh-7; GS4.3 cells, 72 h incubation, NPTII ELISA; read-out: Replicon EC50. The procedure, abridged: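 HuH-7 GS4.3 cells carrying HCV sub-genomic replicon 1377/NS3-3′, treated 72 h at 37 °C without G418 with 3-fold dilutions from 10 μM to 56 pM (1% DMSO). NPTII in cell lysates measured by direct ELISA with TMB readout at 450 nm. EC50 from 4-parameter fit of percent DMSO-control signal.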

SMILES strings stand for the structures. Some results are limits rather than exact numbers.

T1 sequence (P27958 1027-1657): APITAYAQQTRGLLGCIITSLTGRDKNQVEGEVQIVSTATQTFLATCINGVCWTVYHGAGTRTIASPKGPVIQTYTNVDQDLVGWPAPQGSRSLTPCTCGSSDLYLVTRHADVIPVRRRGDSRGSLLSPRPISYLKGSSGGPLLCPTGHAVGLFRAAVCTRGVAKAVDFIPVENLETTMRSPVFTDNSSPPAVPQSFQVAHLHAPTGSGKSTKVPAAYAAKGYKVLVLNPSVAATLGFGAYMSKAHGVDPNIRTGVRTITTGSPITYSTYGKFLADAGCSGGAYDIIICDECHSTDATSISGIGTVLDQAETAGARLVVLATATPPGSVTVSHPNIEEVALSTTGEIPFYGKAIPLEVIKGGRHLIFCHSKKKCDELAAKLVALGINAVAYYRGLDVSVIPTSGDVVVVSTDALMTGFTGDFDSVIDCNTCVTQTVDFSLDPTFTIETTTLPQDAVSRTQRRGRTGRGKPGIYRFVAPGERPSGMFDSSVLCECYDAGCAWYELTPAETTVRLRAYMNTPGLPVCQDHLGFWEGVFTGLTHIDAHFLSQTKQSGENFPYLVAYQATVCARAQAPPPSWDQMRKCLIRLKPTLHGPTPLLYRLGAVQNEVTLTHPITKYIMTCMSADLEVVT

What is called IC50 is the concentration at which inhibition is half-maximal. What is called EC50 is the concentration that produces a half-maximal response. With `O=C(N[C@H]1CCCCC/C=C\[C@@H]2C[C@@]2(C(=O)NC(=O)C2CC2)NC(=O)[C@@H]2C[C@@H](OC(=O)N3CCc4ccccc4C3)CN2C1=O)OC1CCCC1` [Compound 706], the IC50 in test [1] is less than 100 nM. Moreover, the EC50 in test [2] is less than 100 nM.

Regarding `O=C1N[C@]2(C(=O)NS(=O)(=O)C3CC3)C[C@H]2/C=C\CCCCC[C@H](NCCC(F)(F)F)C(=O)N2C[C@H](OC(=O)N3Cc4cccc(F)c4C3)C[C@@H]12` [Compound 900], the IC50 in test [1] was less than 100 nM. In test [2], the concentration for a half-maximal effect (EC50) is less than 100 nM.

With `O=C1N[C@]2(C(=O)NS(=O)(=O)C3CC3)C[C@H]2/C=C\CCCCC[C@H](NCc2cccc(C(F)(F)F)c2)C(=O)N2C[C@H](OC(=O)N3Cc4cccc(F)c4C3)C[C@@H]12` [Compound 901, (1S,4R,6S,14S,18R)-14-(3-(trifluoromethyl)benzylamino)-4-(cyclopropanesulfonyl)aminocarbonyl-18-(4-fluoro-1,3-dihydro-isoindole-2-carbonyloxyl)-2,15-dioxo-3,16-diaza-tricyclo[14.3.0.0^4,6]nonadec-7-ene], the IC50 in test [1] was less than 100 nM. In addition, the concentration for a half-maximal effect (EC50) in test [2] is less than 100 nM.

In the case of `O=C1N[C@]2(C(=O)NS(=O)(=O)C3CC3)C[C@H]2/C=C\CCCCC[C@H](NCCCC(F)(F)F)C(=O)N2C[C@H](OC(=O)N3Cc4cccc(F)c4C3)C[C@@H]12` [Compound 902], the half-inhibitory concentration (IC50) in test [1] is less than 100 nM. For the same compound, the EC50 in test [2] was less than 100 nM.

Take `O=C1N[C@]2(C(=O)NS(=O)(=O)C3CC3)C[C@H]2/C=C\CCCCC[C@H](NCc2cc(F)cc(F)c2)C(=O)N2C[C@H](OC(=O)N3Cc4cccc(F)c4C3)C[C@@H]12` [Compound 903]: the IC50 in test [1] is less than 100 nM. Further, in test [2], the EC50 was less than 100 nM.

In the case of `O=C1N[C@]2(C(=O)NS(=O)(=O)C3CC3)C[C@H]2/C=C\CCCCC[C@H](NCc2ccc(F)c(F)c2)C(=O)N2C[C@H](OC(=O)N3Cc4cccc(F)c4C3)C[C@@H]12` [Compound 904], the IC50 in test [1] is less than 100 nM. Further, in test [2], the concentration giving a half-maximal response (EC50) was less than 100 nM.

As for `O=C1N[C@]2(C(=O)NS(=O)(=O)C3CC3)C[C@H]2/C=C\CCCCC[C@H](NCc2ccccc2)C(=O)N2C[C@H](OC(=O)N3Cc4cccc(F)c4C3)C[C@@H]12` [Compound 905], the half-maximal inhibitory concentration (IC50) in test [1] is less than 100 nM. Moreover, the EC50 in test [2] is less than 100 nM.

In the case of `COc1cccc(CN[C@H]2CCCCC/C=C\[C@@H]3C[C@@]3(C(=O)NS(=O)(=O)C3CC3)NC(=O)[C@@H]3C[C@@H](OC(=O)N4Cc5cccc(F)c5C4)CN3C2=O)c1` [Compound 906], the 50% inhibitory concentration (IC50) in test [1] was less than 100 nM. Further, the concentration for a half-maximal effect (EC50) in test [2] was less than 100 nM.

Take `O=C1N[C@]2(C(=O)NS(=O)(=O)C3CC3)C[C@H]2/C=C\CCCCC[C@H](NC2CCC2)C(=O)N2C[C@H](OC(=O)N3Cc4cccc(F)c4C3)C[C@@H]12` [Compound 907]: the IC50 in test [1] was less than 100 nM. The EC50 in test [2] was less than 1000 nM.

Take `CN(C)[C@H]1CCCCC/C=C\[C@@H]2C[C@@]2(C(=O)NS(=O)(=O)C2CC2)NC(=O)[C@@H]2C[C@@H](OC(=O)N3Cc4cccc(F)c4C3)CN2C1=O` [Compound 908]: in test [1], the IC50 was less than 1000 nM. Besides, in test [2], the concentration for a half-maximal effect (EC50) is less than 10000 nM.

As for `Cc1ccc(CN[C@H]2CCCCC/C=C\[C@@H]3C[C@@]3(C(=O)NS(=O)(=O)C3CC3)NC(=O)[C@@H]3C[C@@H](OC(=O)N4Cc5cccc(F)c5C4)CN3C2=O)o1` [Compound 909], the IC50 in test [1] is less than 100 nM. In addition, the EC50 in test [2] was less than 100 nM.

Take `O=C1N[C@]2(C(=O)NS(=O)(=O)C3CC3)C[C@H]2/C=C\CCCCC[C@H](NCC2CC2)C(=O)N2C[C@H](OC(=O)N3Cc4cccc(F)c4C3)C[C@@H]12` [Compound 910]: the half-inhibitory concentration (IC50) in test [1] is less than 100 nM. Further, the EC50 in test [2] is less than 1000 nM.

As for `O=C1N[C@]2(C(=O)NS(=O)(=O)C3CC3)C[C@H]2/C=C\CCCCC[C@H](N(CC2CC2)CC2CC2)C(=O)N2C[C@H](OC(=O)N3Cc4cccc(F)c4C3)C[C@@H]12` [Compound 911], the 50% inhibitory concentration (IC50) in test [1] is less than 1000 nM. For the same compound, the EC50 in test [2] is less than 10000 nM.

For the compound `CC(C)(C)CCN[C@H]1CCCCC/C=C\[C@@H]2C[C@@]2(C(=O)NS(=O)(=O)C2CC2)NC(=O)[C@@H]2C[C@@H](OC(=O)N3Cc4cccc(F)c4C3)CN2C1=O` [Compound 912], the concentration for half-maximal inhibition (IC50) in test [1] is less than 100 nM. Also, the EC50 in test [2] was less than 100 nM.
